Tests used:
aurora A = target: T1, aurora A (Homo sapiens, UniProt O14965); test: Kinase assay aurora A; format: biochemical; details: Ki calculated (Cheng-Prusoff) from experimentally determined IC50 and Km,ATP; read-out: Kinase Inhibition Ki Aurora A
T1 sequence (O14965 1-403): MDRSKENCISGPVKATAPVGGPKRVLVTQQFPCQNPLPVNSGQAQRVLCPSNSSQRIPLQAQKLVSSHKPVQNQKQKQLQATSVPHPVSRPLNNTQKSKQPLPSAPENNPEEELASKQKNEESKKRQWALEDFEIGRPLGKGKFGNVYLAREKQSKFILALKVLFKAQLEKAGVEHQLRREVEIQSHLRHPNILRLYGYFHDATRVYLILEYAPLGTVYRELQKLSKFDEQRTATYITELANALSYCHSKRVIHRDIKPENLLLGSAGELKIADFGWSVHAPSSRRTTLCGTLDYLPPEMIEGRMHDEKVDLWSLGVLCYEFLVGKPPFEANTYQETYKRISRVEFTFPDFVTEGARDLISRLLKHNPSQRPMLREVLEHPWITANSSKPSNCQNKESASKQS
How it was run: (§1)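 Radiometric assays measured transfer of radioactive phosphate from ATP onto polypeptide substrates, using 2-4 μg recombinant active enzyme in buffer typically containing 25 mM β-glycerophosphate, 20 mM MOPS, 5 mM EGTA, 1 mM DTT and 1 mM Na3VO3 at pH 7.4. Reactions were stopped on ice, filtered on P81 or GF/C plates and washed with orthophosphoric acid. Incorporated radioactivity was scintillation-counted.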

CDK1/cyclin B = CDK1/cyclin B (Homo sapiens, UniProt P06493); test: Kinase assay CDK1/cyclin B (radioactive phosphate incorporation); format: biochemical; details: Ki calculated (Cheng-Prusoff) from experimentally determined IC50 and Km,ATP; read-out: Kinase Inhibition Ki CDK1 - cyclin B
How it was run: as §1

CDK7/cyclin H = CDK7/cyclin H (Homo sapiens, UniProt P50613); test: Kinase assay CDK7/cyclin H; format: biochemical; details: Ki calculated (Cheng-Prusoff) from experimentally determined IC50 and Km,ATP; read-out: Kinase Inhibition Ki CDK7 - cyclin H
How it was run: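 Radiometric filter assays used recombinant kinases or complexes (2-4 μg) with appropriate polypeptide substrates in pH 7.4 β-glycerophosphate/MOPS buffer. Reactions were started with 15 mM MgCl2 and 100 μM ATP containing [γ-32P]-ATP and run at 30° C. Phosphate incorporated into substrate was counted by scintillation after washing.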

glycogen synthase = test: Glycogen synthase activation in rat myotubes; format: cell-based; details: for EC50: Myotube; for Max FI (% to LiCl): maximum fold induction normalised to 40 mM LiCl
Method: Rat myotubes were differentiated from L6.G8.C5 myoblasts, which were grown in DMEM, 10% FCS and antibiotics until confluent. The medium was then removed, cells washed with PBS and differentiation medium containing minimal essential media eagles (alpha modified) supplemented with 2% FCS and antibiotics. The cells were cultured for 3-4 days until >90% of cells had formed multinucleated myotubes. The differentiated cells were then used for determination of glycogen synthase activation after treatment with GSK3 inhibitor example compounds.
HEK293 cells, mouse adipocytes or rat myotubes were treated in 10-cm Petri dishes with different concentrations of GSK3 inhibitor example compounds for 90 minutes. At the end of the treatment period the cells were washed and scraped in ice cold PBS buffer supplemented with 20 mM NaF. The cells were pelleted by centrifugation and lysed in 300 μL buffer (50 mM.HEPES pH 7.5, 10 mM EDTA, 100 mM NaF, 5 mM DTT, protease inhibitor cocktail (Sigma)). After incubation for 30 min on ice the samples were cleared by centrifugation. The activity of glycogen synthase was determined in the soluble fraction at two different concentrations of […]—low (0.1 mM) and high (10 mM). The reaction was carried out for 30 min (buffer: 50 mM Tris pH 7.8, 20 mM EDTA, 25 mM NaF, 5 mM DTT). The reaction mixture (total volume of 90 μL) contained 1% glycogen, 0.3 mM UDP-glucose and 0.06 μCi ^14C-UDP-glucose. Reaction was stopped by transfer of 70 μL to a GFC 96-well filter plate, containing 140 μL 100% ethanol and the glycogen was allowed to precipitate for 1 h at 4° C. The wells were washed 2 times with 200 μL 66% ethanol and than allowed to dry. Subsequently, 100 μL of scintillation liquid was added, and plates were sealed and counted in a Packard Topcounter. Glycogen synthase activation was calculated as the ratio between the incorporation of labelled ^14C-UDP-glucose in glycogen at low and high concentration of […] (fractional velocity).
The ability of GSK3 inhibitors to activate glycogen synthase was determined in HEK293 cells, mouse adipocytes and rat myotubed. The compounds tested activated glycogen synthase in all three cellular systems with EC50 values in the sub-micromolar to low micromolar concentration range. Most of them exceeded the stimulation induced by 40 mM LiCl (the highest compound concentration used in the assay was 20 μM).

CDK2/cyclin E = CDK2/cyclin E (Homo sapiens, UniProt P24941); test: Kinase assay CDK2/cyclin E; format: biochemical; details: Ki calculated (Cheng-Prusoff) from experimentally determined IC50 and Km,ATP; read-out: Kinase Inhibition Ki CDK2 - cyclin E
How it was run: as §1

CDK2/cyclin A = CDK2/cyclin A (Homo sapiens, UniProt P24941); test: Kinase assay CDK2/cyclin A; format: biochemical; details: Ki calculated (Cheng-Prusoff) from experimentally determined IC50 and Km,ATP; read-out: Kinase Inhibition Ki CDK2 - cyclin A
How it was run: as §1

CDK7/cyclin H, sequence (P50613 whole entry, species assumed): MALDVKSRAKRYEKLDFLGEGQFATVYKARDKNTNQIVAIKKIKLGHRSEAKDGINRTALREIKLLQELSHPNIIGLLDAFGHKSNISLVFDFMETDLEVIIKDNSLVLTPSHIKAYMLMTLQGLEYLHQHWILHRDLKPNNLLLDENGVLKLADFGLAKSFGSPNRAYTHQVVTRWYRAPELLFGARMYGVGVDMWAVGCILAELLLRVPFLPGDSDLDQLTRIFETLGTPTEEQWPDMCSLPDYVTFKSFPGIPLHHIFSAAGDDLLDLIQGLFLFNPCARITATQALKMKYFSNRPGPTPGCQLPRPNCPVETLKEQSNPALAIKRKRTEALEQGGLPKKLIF
CDK7/cyclin H, sequence (P51946 whole entry partner, species assumed): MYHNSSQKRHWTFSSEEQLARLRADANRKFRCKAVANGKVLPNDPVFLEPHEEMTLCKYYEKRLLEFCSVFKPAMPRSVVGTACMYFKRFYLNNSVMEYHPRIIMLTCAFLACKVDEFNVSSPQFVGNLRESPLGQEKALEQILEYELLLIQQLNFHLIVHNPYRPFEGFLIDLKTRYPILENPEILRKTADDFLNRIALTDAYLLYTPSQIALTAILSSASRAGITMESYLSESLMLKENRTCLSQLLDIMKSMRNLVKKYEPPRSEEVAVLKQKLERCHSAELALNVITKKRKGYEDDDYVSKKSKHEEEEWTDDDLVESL
CDK1/cyclin B, sequence (P06493 whole entry, species assumed): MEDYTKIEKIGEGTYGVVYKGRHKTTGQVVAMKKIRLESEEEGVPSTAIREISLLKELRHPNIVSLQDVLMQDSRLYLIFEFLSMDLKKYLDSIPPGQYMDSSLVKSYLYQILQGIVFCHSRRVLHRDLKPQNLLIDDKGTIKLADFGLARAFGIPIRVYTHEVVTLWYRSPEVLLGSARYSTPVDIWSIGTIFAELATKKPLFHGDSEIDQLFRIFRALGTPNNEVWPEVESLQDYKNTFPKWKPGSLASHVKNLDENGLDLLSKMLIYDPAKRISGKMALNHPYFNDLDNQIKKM
CDK1/cyclin B, sequence (P14635 whole entry partner, species assumed): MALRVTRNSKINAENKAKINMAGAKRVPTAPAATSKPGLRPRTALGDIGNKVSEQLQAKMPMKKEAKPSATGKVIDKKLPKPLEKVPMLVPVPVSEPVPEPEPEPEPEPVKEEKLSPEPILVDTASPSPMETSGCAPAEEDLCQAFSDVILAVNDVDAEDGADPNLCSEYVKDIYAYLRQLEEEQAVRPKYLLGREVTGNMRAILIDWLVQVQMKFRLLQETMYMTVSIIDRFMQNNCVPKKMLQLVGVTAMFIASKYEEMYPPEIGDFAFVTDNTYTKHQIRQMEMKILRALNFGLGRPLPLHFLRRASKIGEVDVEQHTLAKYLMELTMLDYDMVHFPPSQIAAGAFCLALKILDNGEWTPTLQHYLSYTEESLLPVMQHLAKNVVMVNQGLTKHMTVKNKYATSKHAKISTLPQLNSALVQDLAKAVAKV

SMILES | Ki (aurora A) | Ki (CDK1/cyclin B) | Ki (CDK7/cyclin H) | EC50 (glycogen synthase) | Ki (CDK2/cyclin E) | Ki (CDK2/cyclin A) | Max FI (% to LiCl) (glycogen synthase)
CC(=O)Nc1cc(Nc2nccc(-c3sc(=O)n(C)c3C)n2)cc(C(F)(F)F)c1 [Compound 64, N-{3-[4-(3,4-Dimethyl-2-oxo-2,3-dihydro-thiazol-5-yl)-pyrimidin-2-ylamino]-5-trifluoromethyl-phenyl}-acetamide] | 170 nM | 870 nM | 3900 nM | 1240 ± 610 nM |  |  | 152 % to LiCl
COCCNS(=O)(=O)c1cccc(Nc2nccc(-c3sc(=O)n(C)c3C)n2)c1 [Compound 67, 3-[4-(3,4-Dimethyl-2-oxo-2,3-dihydro-thiazol-5-yl)-pyrimidin-2-ylamino]-N-(2-methoxy-ethyl)-benzenesulfonamide] | 390 nM |  | 360 nM | 10500 ± 990 nM |  | 1300 nM | 112 % to LiCl
CNc1cc(Nc2nccc(-c3sc(=O)n(C)c3C)n2)cc(C(F)(F)F)c1 [Compound 76, 3,4-Dimethyl-5-[2-(3-methylamino-5-trifluoromethyl-phenylamino)-pyrimidin-4-yl]-3H-thiazol-2-one] | 150 nM |  | 800 nM |  | 89 nM |  | 

The next lines start with results.

Ki (aurora A) | Ki (CDK1/cyclin B) | Ki (CDK7/cyclin H) | EC50 (glycogen synthase) | Ki (CDK2/cyclin E) | Ki (CDK2/cyclin A) | SMILES | Max FI (% to LiCl) (glycogen synthase)
250 nM | 620 nM | 370 nM | 8490 ± 2480 nM | 380 nM | 410 nM | Cc1c(-c2ccnc(Nc3cccc(S(=O)(=O)NCCO)c3)n2)sc(=O)n1C [Compound 75, 3-[4-(3,4-Dimethyl-2-oxo-2,3-dihydro-thiazol-5-yl)-pyrimidin-2-ylamino]-N-(2-hydroxy-ethyl)-benzenesulfonamide] | 157 % to LiCl
410 nM | 430 nM | 1100 nM | 1610 ± 199 nM | 350 nM | 610 nM | CCNS(=O)(=O)c1cccc(Nc2nccc(-c3sc(=O)n(C)c3C)n2)c1 [Compound 62, 3-[4-(3,4-Dimethyl-2-oxo-2,3-dihydro-thiazol-5-yl)-pyrimidin-2-ylamino]-N-ethyl-benzenesulfonamide] | 130 % to LiCl

Source: patent publication US7902361B2, “Pyrimidin-4-yl-3, 4-thione compounds and their use in therapy” (Cyclacel Limited, priority 2003, dated 2011)
